Reference: publication PMC5071672 (2016)

Tests used:
[1] = tested on: duplex-[(dGdC)12·(dGdC)12] (DNA, duplex) GCGCGCGCGCGCGCGCGCGCGCGC; experiment: ITC; settings: 100 mM KCl; 25 mM MOPS, 1 mM EDTA, pH 7.1, 25 °C; site 1 of 2; ill-defined, SI favours higher value
[2] = tested on: 22AG (DNA, G4) AGGGTTAGGGTTAGGGTTAGGG; experiment: UV/visible titration; settings: 100 mM KCl, 25 mM MOPS, 1 mM EDTA, pH 7.1, 20 °C (text: 25 °C), apparent, per site, MIS model
[3] = tested on: duplex-[(dGdC)12·(dGdC)12] (DNA, duplex) GCGCGCGCGCGCGCGCGCGCGCGC; experiment: fluorescence titration; settings: 100 mM KCl, 25 mM MOPS, 1 mM EDTA, pH 7.1, 20 °C (text: 25 °C), apparent, per site, MIS model
[4] = tested on: c-myc (DNA, G4) TGAGGGTGGGTAGGGTGGGTAA; experiment: UV/visible titration; settings: 100 mM KCl, 25 mM MOPS, 1 mM EDTA, pH 7.1, 20 °C (text: 25 °C), apparent, per site, MIS model
[5] = tested on: duplex-[(dAdT)12·(dAdT)12] (DNA, duplex) ATATATATATATATATATATATAT; experiment: fluorescence titration; settings: 100 mM KCl; 25 mM MOPS, 1 mM EDTA, pH 7.1, 20 °C (text: 25 °C); 2 µM ligand; affinity printed as negligible
[6] = tested on: c-myc (DNA, G4) TGAGGGTGGGTAGGGTGGGTAA; experiment: fluorescence titration; settings: 100 mM KCl, 25 mM MOPS, 1 mM EDTA, pH 7.1, 20 °C (text: 25 °C), apparent, per site, MIS model
[7] = tested on: duplex-[(dGdC)12·(dGdC)12] (DNA, duplex) GCGCGCGCGCGCGCGCGCGCGCGC; experiment: UV/visible titration; settings: 100 mM KCl, 25 mM MOPS, 1 mM EDTA, pH 7.1, 20 °C (text: 25 °C), apparent, per site, MIS model
[8] = tested on: 22AG (DNA, G4) AGGGTTAGGGTTAGGGTTAGGG; experiment: fluorescence titration; settings: 100 mM KCl, 25 mM MOPS, 1 mM EDTA, pH 7.1, 20 °C (text: 25 °C), apparent, per site, MIS model
[9] = tested on: duplex-[(dAdT)12·(dAdT)12] (DNA, duplex) ATATATATATATATATATATATAT; experiment: ITC; settings: 100 mM KCl; 25 mM MOPS, 1 mM EDTA, pH 7.1, 25 °C; too weak to be analysed
[10] = tested on: c-myc (DNA, G4) TGAGGGTGGGTAGGGTGGGTAA; experiment: ITC; settings: 100 mM KCl; 25 mM MOPS, 1 mM EDTA, pH 7.1, 25 °C; site 1 of 2; nB restricted to 2
[11] = tested on: duplex-[(dAdT)12·(dAdT)12] (DNA, duplex) ATATATATATATATATATATATAT; experiment: UV/visible titration; settings: 100 mM KCl; 25 mM MOPS, 1 mM EDTA, pH 7.1, 20 °C (text: 25 °C); 2 µM ligand; affinity printed as negligible
[12] = tested on: 22AG (DNA, G4) AGGGTTAGGGTTAGGGTTAGGG; experiment: ITC; settings: 100 mM KCl; 25 mM MOPS, 1 mM EDTA, pH 7.1, 25 °C; site 1 of 2

## C[n+]1cccc(-c2cc3c4cc(-c5ccc[n+](C)c5)c5nc(C(F)(F)C(F)(F)C(F)(F)F)nc6c(-c7ccc[n+](C)c7)cc(c7cc(-c8ccc[n+](C)c8)c8nc(C(F)(F)C(F)(F)C(F)(F)F)nc2c8c37)c4c56)c1
[1]
  K A: 1.2×10^5 (<8×10^6) M^-1
[2]
  K b: (8.4±2.2) × 10^6 M^-1
[3]
  K b: (2.6±0.7) × 10^6 M^-1
[4]
  K b: (23.8±7.3) × 10^6 M^-1
[5]
  binding: weak
[6]
  K b: (23.1±5.9) × 10^6 M^-1
[7]
  K b: (2.6±0.9) × 10^6 M^-1
[8]
  K b: (1.2±0.2) × 10^6 M^-1
[9]
  binding: weak
[10]
  K A: 1.3×10^7 (>0.4×10^7) M^-1
[11]
  binding: weak
[12]
  K A: 3.8×10^6 (<36×10^6) M^-1
